How the values were obtained:
Assay in all cases: relative viability (nuclei count vs DMSO), 5 days (fraction); higher = more cells survive
NCI-H1648 = test system: NCI-H1648
Procedure, shortened: (§1)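 Lung cancer cell lines were seeded in 1536-well plates and dosed by pin tool the next day, with either a single drug or a fixed anchor-drug dose combined with five library-drug doses (not always all listed) spaced in √10 steps. Five days later, one step fixed the cells and stained their nuclei (final 0.05% Triton X-100, 1% formaldehyde, 1 ug/ml Hoechst), and nuclei were counted on 4× images. Relative viability is the nuclei count in treated wells divided by the count in vehicle wells, and each value is the median of duplicate plates.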

LXF-289 = test system: LXF-289
Procedure, shortened: as §1

NCI-H522 = test system: NCI-H522
Procedure, shortened: as §1

NCI-H2347 = test system: NCI-H2347
Procedure, shortened: as §1

NCI-H1915 = test system: NCI-H1915
Procedure, shortened: as §1

NCI-H1437 = test system: NCI-H1437
Procedure, shortened: as §1

EKVX = test system: EKVX
Procedure, shortened: as §1

HCC-366 = test system: HCC-366
Procedure, shortened: as §1

NCI-H2170 = test system: NCI-H2170
Procedure, shortened: as §1

NCI-H358 = test system: NCI-H358
Procedure, shortened: as §1

HCC-78 = test system: HCC-78
Procedure, shortened: as §1

HARA = test system: HARA
Procedure, shortened: as §1

CAL-12T = test system: CAL-12T
Procedure, shortened: as §1

UMC-11 = test system: UMC-11
Procedure, shortened: as §1

LOU-NH91 = test system: LOU-NH91
Procedure, shortened: as §1

NCI-H1793 = test system: NCI-H1793
Procedure, shortened: as §1

HCC-827 = test system: HCC-827
Procedure, shortened: as §1

NCI-H1734 = test system: NCI-H1734
Procedure, shortened: as §1

COR-L 105 = test system: COR-L 105
Procedure, shortened: as §1

NCI-H2342 = test system: NCI-H2342
Procedure, shortened: as §1

LU99A = test system: LU99A
Procedure, shortened: as §1

With `Cc1cn(-c2cc(NC(=O)c3ccc(C)c(Nc4nccc(-c5cccnc5)n4)c3)cc(C(F)(F)F)c2)cn1` [Nilotinib] + Nc1nc2[nH]cc(CCc3ccc(C(=O)N[C@@H](CCC(=O)O)C(=O)O)cc3)c2c(=O)[nH]1 [Pemetrexed] (partner 0.2 µM) as the molecule, how does the relative viability (NCI-H1648; first compound 0.001 µM) read?
Its relative viability is 0.792.

And the relative viability (NCI-H1648; first compound 0.003162 µM)?
The relative viability was 0.685.

What about the relative viability (NCI-H1648; first compound 0.01 µM) of the same molecule?
Its relative viability is 0.726.

What about the relative viability (NCI-H1648; first compound 0.03162 µM) of the same molecule?
The relative viability was 0.506.

And the relative viability (NCI-H1648; first compound 0.1 µM)?
Its relative viability is 0.685.

What about the relative viability (LXF-289; first compound 0.001 µM) of the same molecule?
Its relative viability is 0.836.

And the relative viability (LXF-289; first compound 0.003162 µM)?
Its relative viability is 1.07.

And the relative viability (LXF-289; first compound 0.01 µM)?
Its relative viability is 1.01.

And the relative viability (LXF-289; first compound 0.03162 µM)?
Its relative viability is 0.878.

What about the relative viability (LXF-289; first compound 0.1 µM) of the same molecule?
The relative viability was 0.519.

And the relative viability (NCI-H522; first compound 0.01 µM)?
Its relative viability is 1.21.

What about the relative viability (NCI-H522; first compound 0.03162 µM) of the same molecule?
The relative viability was 0.949.

And the relative viability (NCI-H522; first compound 0.1 µM)?
The relative viability was 0.792.

What about the relative viability (NCI-H2347; first compound 0.001 µM) of the same molecule?
The relative viability was 0.401.

And the relative viability (NCI-H2347; first compound 0.003162 µM)?
The relative viability was 0.384.

What about the relative viability (NCI-H2347; first compound 0.01 µM) of the same molecule?
Its relative viability is 0.435.

And the relative viability (NCI-H2347; first compound 0.03162 µM)?
The relative viability was 0.517.

What about the relative viability (NCI-H2347; first compound 0.1 µM) of the same molecule?
Its relative viability is 0.418.

And the relative viability (NCI-H1915; first compound 0.001 µM)?
Its relative viability is 0.435.

And the relative viability (NCI-H1915; first compound 0.003162 µM)?
The relative viability was 0.427.

What about the relative viability (NCI-H1915; first compound 0.01 µM) of the same molecule?
Its relative viability is 0.532.

And the relative viability (NCI-H1915; first compound 0.03162 µM)?
Its relative viability is 0.449.

What about the relative viability (NCI-H1915; first compound 0.1 µM) of the same molecule?
The relative viability was 0.438.

What about the relative viability (NCI-H1437; first compound 0.001 µM) of the same molecule?
Its relative viability is 0.28.

And the relative viability (NCI-H1437; first compound 0.003162 µM)?
The relative viability was 0.34.

What about the relative viability (NCI-H1437; first compound 0.01 µM) of the same molecule?
The relative viability was 0.343.

And the relative viability (NCI-H1437; first compound 0.03162 µM)?
Its relative viability is 0.276.

And the relative viability (NCI-H1437; first compound 0.1 µM)?
The relative viability was 0.311.

What about the relative viability (EKVX; first compound 0.001 µM) of the same molecule?
Its relative viability is 0.33.

And the relative viability (EKVX; first compound 0.003162 µM)?
The relative viability was 0.27.

What about the relative viability (EKVX; first compound 0.01 µM) of the same molecule?
Its relative viability is 0.471.

What about the relative viability (EKVX; first compound 0.03162 µM) of the same molecule?
The relative viability was 0.353.

And the relative viability (HCC-366; first compound 0.001 µM)?
Its relative viability is 0.157.

What about the relative viability (HCC-366; first compound 0.003162 µM) of the same molecule?
Its relative viability is 0.129.

What about the relative viability (HCC-366; first compound 0.01 µM) of the same molecule?
Its relative viability is 0.163.

And the relative viability (HCC-366; first compound 0.03162 µM)?
Its relative viability is 0.106.

And the relative viability (HCC-366; first compound 0.1 µM)?
The relative viability was 0.115.

What about the relative viability (NCI-H2170; first compound 0.001 µM) of the same molecule?
The relative viability was 0.265.

And the relative viability (NCI-H2170; first compound 0.003162 µM)?
Its relative viability is 0.261.

And the relative viability (NCI-H2170; first compound 0.03162 µM)?
Its relative viability is 0.252.

And the relative viability (NCI-H2170; first compound 0.1 µM)?
Its relative viability is 0.315.

What about the relative viability (NCI-H358; first compound 0.001 µM) of the same molecule?
Its relative viability is 0.187.

What about the relative viability (NCI-H358; first compound 0.003162 µM) of the same molecule?
The relative viability was 0.175.

What about the relative viability (NCI-H358; first compound 0.01 µM) of the same molecule?
The relative viability was 0.169.

And the relative viability (NCI-H358; first compound 0.03162 µM)?
The relative viability was 0.144.

And the relative viability (NCI-H358; first compound 0.1 µM)?
Its relative viability is 0.152.

What about the relative viability (HCC-78; first compound 0.001 µM) of the same molecule?
The relative viability was 0.897.

What about the relative viability (HCC-78; first compound 0.003162 µM) of the same molecule?
Its relative viability is 0.654.

And the relative viability (HCC-78; first compound 0.01 µM)?
The relative viability was 0.836.

And the relative viability (HCC-78; first compound 0.03162 µM)?
The relative viability was 0.8.

What about the relative viability (HCC-78; first compound 0.1 µM) of the same molecule?
The relative viability was 0.935.

What about the relative viability (HARA; first compound 0.001 µM) of the same molecule?
Its relative viability is 0.311.

And the relative viability (HARA; first compound 0.003162 µM)?
The relative viability was 0.235.

What about the relative viability (HARA; first compound 0.01 µM) of the same molecule?
Its relative viability is 0.198.

And the relative viability (HARA; first compound 0.03162 µM)?
Its relative viability is 0.184.

What about the relative viability (HARA; first compound 0.1 µM) of the same molecule?
The relative viability was 0.214.

And the relative viability (CAL-12T; first compound 0.001 µM)?
Its relative viability is 0.977.

And the relative viability (CAL-12T; first compound 0.003162 µM)?
Its relative viability is 1.48.

What about the relative viability (CAL-12T; first compound 0.01 µM) of the same molecule?
Its relative viability is 1.34.

What about the relative viability (CAL-12T; first compound 0.03162 µM) of the same molecule?
The relative viability was 0.992.

What about the relative viability (CAL-12T; first compound 0.1 µM) of the same molecule?
Its relative viability is 1.22.

What about the relative viability (UMC-11; first compound 0.001 µM) of the same molecule?
The relative viability was 0.789.

What about the relative viability (UMC-11; first compound 0.003162 µM) of the same molecule?
Its relative viability is 0.914.

And the relative viability (UMC-11; first compound 0.01 µM)?
The relative viability was 0.857.

What about the relative viability (UMC-11; first compound 0.03162 µM) of the same molecule?
Its relative viability is 0.495.

And the relative viability (UMC-11; first compound 0.1 µM)?
The relative viability was 0.631.

And the relative viability (LOU-NH91; first compound 0.001 µM)?
The relative viability was 0.376.

And the relative viability (LOU-NH91; first compound 0.003162 µM)?
Its relative viability is 1.11.

What about the relative viability (LOU-NH91; first compound 0.01 µM) of the same molecule?
The relative viability was 0.374.

And the relative viability (LOU-NH91; first compound 0.03162 µM)?
The relative viability was 0.384.

And the relative viability (LOU-NH91; first compound 0.1 µM)?
The relative viability was 0.403.

What about the relative viability (NCI-H1793; first compound 0.001 µM) of the same molecule?
The relative viability was 0.996.

What about the relative viability (NCI-H1793; first compound 0.003162 µM) of the same molecule?
Its relative viability is 0.965.

What about the relative viability (NCI-H1793; first compound 0.01 µM) of the same molecule?
Its relative viability is 1.07.

And the relative viability (NCI-H1793; first compound 0.03162 µM)?
Its relative viability is 0.903.

What about the relative viability (NCI-H1793; first compound 0.1 µM) of the same molecule?
The relative viability was 0.359.

What about the relative viability (HCC-827; first compound 0.001 µM) of the same molecule?
The relative viability was 0.272.

What about the relative viability (HCC-827; first compound 0.003162 µM) of the same molecule?
The relative viability was 0.224.

What about the relative viability (HCC-827; first compound 0.03162 µM) of the same molecule?
The relative viability was 0.217.

And the relative viability (HCC-827; first compound 0.1 µM)?
The relative viability was 0.245.

What about the relative viability (NCI-H1734; first compound 0.001 µM) of the same molecule?
Its relative viability is 0.443.

And the relative viability (NCI-H1734; first compound 0.003162 µM)?
Its relative viability is 0.346.

And the relative viability (NCI-H1734; first compound 0.01 µM)?
Its relative viability is 0.364.

And the relative viability (NCI-H1734; first compound 0.03162 µM)?
Its relative viability is 0.388.

What about the relative viability (NCI-H1734; first compound 0.1 µM) of the same molecule?
Its relative viability is 0.31.

And the relative viability (COR-L 105; first compound 0.001 µM)?
Its relative viability is 0.975.

What about the relative viability (COR-L 105; first compound 0.003162 µM) of the same molecule?
The relative viability was 1.17.

And the relative viability (COR-L 105; first compound 0.01 µM)?
Its relative viability is 1.55.

What about the relative viability (COR-L 105; first compound 0.03162 µM) of the same molecule?
Its relative viability is 1.13.

What about the relative viability (COR-L 105; first compound 0.1 µM) of the same molecule?
Its relative viability is 1.15.

And the relative viability (NCI-H2342; first compound 0.001 µM)?
Its relative viability is 0.718.

And the relative viability (NCI-H2342; first compound 0.003162 µM)?
The relative viability was 0.753.

What about the relative viability (NCI-H2342; first compound 0.01 µM) of the same molecule?
Its relative viability is 0.793.

What about the relative viability (NCI-H2342; first compound 0.03162 µM) of the same molecule?
Its relative viability is 0.718.

What about the relative viability (NCI-H2342; first compound 0.1 µM) of the same molecule?
The relative viability was 0.428.

What about the relative viability (LU99A; first compound 0.001 µM) of the same molecule?
The relative viability was 0.158.

And the relative viability (LU99A; first compound 0.003162 µM)?
The relative viability was 0.202.

And the relative viability (LU99A; first compound 0.01 µM)?
The relative viability was 0.177.

And the relative viability (LU99A; first compound 0.03162 µM)?
Its relative viability is 0.225.

What about the relative viability (LU99A; first compound 0.1 µM) of the same molecule?
The relative viability was 0.155.
